Here are results for one compound from US11213506B2, “Combination therapy for the treatment or prevention of tumours” (QBIOTICS PTY LTD, priority 2017, dated 2022).

Assay [1] concerns A431 cells. Description: Intracellular ATP assay (CellTiter-Glo 2.0). It is filed as cell-based, human. The procedure: (§1) CellTiter-Glo® 2.0 assay kits (Promega Corporation), a luminescence based assay quantitating the amount of ATP present in cells, were used to determine intracellular ATP levels in cultures of A431 and MM649 exposed to two concentrations (300 μM and 500 μM) of Compound 1. Again, cells were plated at a density of 10,000 cells per well into a clear bottomed black 96-well plates (in 100 μl of complete medium) and incubated at 37° C., 5% CO2 overnight. At the time of assay, media was aspirated from each well and 50 μl of fresh medium was inserted. Stock solutions of Compound 1 were diluted to 2× final assay concentrations (1 mM and 600 μM) and 50 μl of these dilutions added to the required wells. Ethanol only control solutions were also compiled and administered. At the indicated time points, media was gently removed making sure not to disturb the cells and 100 μl of CellTiter-Glo® 2.0 Reagent added. The resultant plate was mixed on an orbital shaker for 2 mins to induce cell lysis after which it was incubated in the dark for 10 mins. Following this, the luminescent signal in each well was determined. Luminescent signals from compound treated wells were normalised to Vehicle treated wells and expressed as % intracellular ATP vs. time.

Assay [2] concerns MM649 cells. As to the kind of experiment: Intracellular ATP assay (CellTiter-Glo 2.0). The class given is cell-based, human. As to the method:
as §1

Assay [3] deals with B16-OVA cells. As to the kind of experiment: ATP release assay. The class given is cell-based, mouse. The note with it: both concentrations (500 and 300 μM), within 60 minutes. The procedure:
A431 (human epidermoid carcinoma), MM649 (human melanoma) and B16-OVA (B16-F10 mouse melanoma cell line stably transfected with chicken ovalbumin) were cultured in RPMI-1640, 10% FCS (complete medium) at 37° C., 5% CO2 in a humidified incubator. BMDCs were cultured in R10 media (RPMI, 10% FCS, 2 mM glutamine, 50 μM beta-mercaptoethanol, Pen/Strep). All cell lines used in this study were confirmed as mycoplasma negative using MycoAlert (Lonza). STR profiling was also performed to confirm the identity of the human cell lines used.
Cell lines were plated at a density of 10,000 cells per well into clear 96-well plates (Corning, #3595; 100 μl of complete media) and the resultant plates incubated overnight as previously detailed. The following day, media was aspirated from each well and 50 μl of fresh medium was inserted. Stock solutions of Compounds 1, 2, 3 and 4 were diluted to 2× final assay concentration (1 mM and 600 μM) and 50 μl of these dilutions added to the required wells. Ethanol only control solutions were also compiled and administered. At the indicated timepoints, 80 μl of media was removed, centrifuged at 1,200 rpm for 4 mins to pellet cell debris and 50 μl assayed for ATP using a bioluminescence based ATP assay kit (FLAA, Sigma-Aldrich). Relative luminescence units were recorded for each sample using a Hybrid Synergy H4 plate reader (BioTek).

Assay [4] concerns A431 cells. As to the kind of experiment: IncuCyte cytotoxicity assay (propidium iodide). It is filed as cell-based, human. The note with it: 500 μM. The procedure:
(§2) A431 (human epidermoid carcinoma), MM649 (human melanoma), B16-OVA (B16-F10 mouse melanoma cell line stably transfected with chicken ovalbumin), MM415 (human melanoma) and FaDu (human hypopharyngeal carcinoma) cells were cultured in RPMI-1640, 10% FCS (complete medium) at 37° C., 5% CO2 in a humidified incubator. All cell lines used in this study were confirmed as mycoplasma negative using MycoAlert (Lonza). STR profiling was also performed to confirm the identity of the human cell lines used.
(§3) Four cancer cell lines (A431, MM649 (human melanoma), FaDu (HNSCC) and MM415 (human melanoma) were assessed for their response to epoxytigliane treatment. Cells were plated at a density of 10,000 cells per well (100 μl of complete media) into clear bottom black 96-well plates (Corning, #3603). Following 24 h incubation, the media within each well was aspirated and replaced with 50 μl of fresh media containing 1 μg/ml propidium iodide (PI). Stock solutions (20 mg/ml in ethanol) of four epoxytiglianes (Compounds 1, 2, 3 and 4) were diluted to 2× final assay concentration (1 mM) in identical media and inserted into a U-bottom 96 well plate in preparation for transfer. 50 μl of dilution was added to the required wells and the resultant plates inserted into an Essen Biosciences IncuCyte in preparation for imaging. Images were acquired at various time points (30 min, 1 h and at hourly intervals) for a total of 24 h.

Another assay deals with FaDu cells. Description: IncuCyte cytotoxicity assay (propidium iodide). It is filed as cell-based, human. The note with it: 500 μM. The procedure:
as §2, §3

Another assay relates to MM415 cells. As to the kind of experiment: IncuCyte cytotoxicity assay (propidium iodide). It is filed as cell-based, human. The settings on record: 500 μM. The procedure:
as §2, §3

Assay [5] has as its system MM649 cells. As to the kind of experiment: IncuCyte cytotoxicity assay (propidium iodide). The note with it: 500 μM. The class given is cell-based, human. The procedure: as §2, §3
The subject of assay [6] is B16-OVA cells. As to the kind of experiment: Lactate dehydrogenase (LDH) release assay. It is filed as cell-based, mouse. The note with it: 300 μM and 500 μM. As to the method: as §2
Measuring the release of LDH is a well-recognised assay to assess plasma membrane permeabilisation and detect cell death by necrosis (Chan et al. 2013). Three cell lines (A431, MM649 and B16-OVA) were used in these assays. Cells were plated at a density of 10,000 cells per well into clear 96-well plates (Corning, #3595; 100 μl of complete media) and the resultant plates incubated overnight as previously detailed. The following day, media was aspirated from each well and 50 μl of fresh medium was inserted. Stock solutions of Compound 1 were diluted to 2× final assay concentrations (1 mM and 600 μM) and 50 μl of these dilutions added to the required wells. […] OD490 nm and OD690 nm readings were recorded for each sample using a Hybrid Synergy H4 plate reader. Absorbance readings from drug treated samples were normalized to detergent treated controls to determine the % LDH release per well.

Where [7] appears, read: after 120 minutes, majority of cells.
[8] abbreviates: differing extents and kinetics of onset.

Take `C/C=C(\C)C(=O)O[C@@H]1[C@@H](C)[C@@]2(O)[C@H]([C@@H]3C(C)(C)[C@]13OC(=O)[C@@H](C)CC)[C@@H]1O[C@]1(CO)[C@@H](O)[C@]1(O)C(=O)C(C)=C[C@H]12` [Compound 1, 12-tigloyl-13-(2-methylbutanoyl)-6,7-epoxy-4,5,9,12,13,20-hexahydroxy-1-tiglien-3-one]: the “intracellular ATP” value with A431 cells [1] (300 μM, after 120 minutes) was “approximately 50 % of the pre-treatment level”; in the assay on MM649 cells [2] (300 μM, after 120 minutes) it was “approximately 50 % of the pre-treatment level”. In addition, the “intracellular ATP levels” value in the assay with A431 cells [1] (500 μM, after 60 minutes) is on record as “almost undetectable”; in the assay on MM649 cells [2] (500 μM, after 60 minutes), “almost undetectable”. For the same compound, the ATP release result in the assay with B16-OVA cells [3] is listed as “significant release of ATP”. For the same compound, the “propidium iodide staining (loss of plasma membrane integrity)” value in the assay with A431 cells [4] (setting [7]), in the assay with FaDu cells (setting [7]), in the assay with MM415 cells (setting [7]) and with MM649 cells [5] (setting [7]) was “strong red staining” each time. Further, the “cell morphology (cytoplasmic swelling, blistering)” value is “significant cytoplasmic swelling and ‘blistering’” with A431 cells [4] (setting [8]); “significant cytoplasmic swelling and ‘blistering’” with FaDu cells (setting [8]); “significant cytoplasmic swelling and ‘blistering’” in the assay on MM415 cells (setting [8]); “significant cytoplasmic swelling and ‘blistering’” in the assay with MM649 cells [5] (setting [8]). Further, the “LDH release compared to the controls” value in the assay on B16-OVA cells [6] is recorded as “significant release of LDH”.
